We go through four compounds from patent publication US20130195919A1, “INDUCED DENDRITIC CELL COMPOSITIONS AND USES THEREOF” (PRESIDENT AND FELLOWS OF HARVARD COLLEGE, priority 2010, published 2013).

Data set [1] relates to DC. Nature of the data set: DC maturation marker expression by FACS. The format is cell-based, mouse. The conditions noted are these: 100 μM, 6 hours. The protocol: DC were isolated and kept for 6 hours at 4 degrees (ctrlDC 4C) or culture to produce ctrlDC (37C), lpsDC itDC and it/lpsDC. Simultaneously cells were treated with the purinergic receptor agonists ATP (1 mM) and Bz-ATP (100 μM), purinergic receptors antagonists oxidized ATP (oATP, 100 μM) and suranim (100 μM), the adenosine monophosphate kinase (AMPK) stimulator AICAR (100 μM) and the enzyme Apyrase (200 U/ml) that catalyses ATP. Cells were harvested after 6 hours and the expression of the indicated markers was assessed by FACS.
(In flow cytometry, cells or beads pass a laser one at a time.)

Data set [2] concerns DC. Nature of the data set: Oxygen consumption rate (OCR) of DC. The class given is cell-based, mouse. As to conditions: 2 h activation; oATP with or without LPS co-treatment. The method, then: Mitochondria oxygen consumption rate (OCR) was measured by using a YSI 5300 Clark-type electrode (Yellow Springs Instrument, Yellow Springs, Ohio, USA) or the XF24 Extracellular Flux Analyzer (Seahorse Bioscience, Billerica, Mass.) following the manufacturer's protocol. Primary cultured DC (10^6 cells/well) were used as described in the experiments.
The effect of the activation of DC on the O2 consumption rate (OCR) was tested to attempt to correlate increased OCR with increased immunogenicity.
(§1) The effect of direct inhibition of mitochondrial respiration, by an inhibitor of mitochondrial respiratory complex I, rotenone, was tested. […] Control DC were treated with LPS without OVA pulsing. T cell proliferation was analyzed by CFSE dilution on D3.

Data set [3] concerns DC. Nature of the data set: DC immunogenicity: OT-II T cell proliferation by CFSE dilution. The format is cell-based, mouse. The conditions noted are these: LPS plus 1 mM rotenone; CFSE dilution on D3. The method, then: as §1
Data set [4] relates to DC.
Data set [5] concerns DC. Nature of the data set: Ex vivo Treg differentiation: Foxp3 induction in Tn by treated DC. The format is cell-based, mouse.

Regarding `NC(=O)c1ncn([C@@H]2O[C@H](CO)[C@@H](O)[C@H]2O)c1N` [AICAR, 5-aminoimidazole-4-carboxamide-1-β-4-ribofuranoside], the “DC maturation (expression of markers)” value in the data set with DC [1] is reported as “block DC maturation”.
On to `Nc1ncnc2c1ncn2[C@@H]1O[C@H](COP(=O)(O)OP(=O)(O)OP(=O)(O)O)[C@@H](O)[C@H]1O` [ATP, adenosine triphosphate], for which the “OCR of DC” value in the data set on DC [2] is “enhanced OCR levels in DCs”.
`C=C(C)[C@H]1Cc2c(ccc3c2O[C@@H]2COc4cc(OC)c(OC)cc4[C@@H]2C3=O)O1` [rotenone]: in the data set with DC [3], the “T cell proliferation induced by antigen pulsed, LPS matured DC” value is “induced much less T cell proliferation”. For the same compound, the “toxicity to DC (maturation markers CD80, C86, MHC-II and migration to CCL21)” value in the data set on DC [4] was “not toxic to DC”.
Turning to Periodate-oxidized ATP [oATP], the “OCR of DC” value in the data set with DC [2] was “reduced OCR”. Also, the “capacity to imprint DC with tolerogenic potential (percentages of Foxp3 and CD25 expressing cells)” value in the data set with DC [5] (DC incubated 2 hours, oATP 100 μM, 5 days in coculture) is recorded as “significantly imprints DC with tolerogenic potential”. Moreover, in the data set on DC [5] (oATP 100 μM vs rapamycin 10 nM and TGFβ 2 ng/ml), the “tolerogenic capacity compared with the combination of rapamycin and TGFβ” value is recorded as “matches or exceeds”. In addition, the “DC maturation (expression of markers)” value in the data set on DC [1] is listed as “block DC maturation”.
